Among the data in PubChem BioAssay AID2510 (The Scripps Research Institute Molecular Screening Center, 2010) are EC50 values, retold here.

pEC50: −log10 of the molar value.

This assay deals with Mucolipin-3 (Homo sapiens) (UniProt Q8TDD5). Kind of assay: TRPML3 agonist potency, dose response, cell-based, calcium fluorescence (AID 2510). Particulars: TRPML3-expressing cells, agonist mode.
Mucolipin-3 (Homo sapiens), sequence (Q8TDD5 whole entry, looked up): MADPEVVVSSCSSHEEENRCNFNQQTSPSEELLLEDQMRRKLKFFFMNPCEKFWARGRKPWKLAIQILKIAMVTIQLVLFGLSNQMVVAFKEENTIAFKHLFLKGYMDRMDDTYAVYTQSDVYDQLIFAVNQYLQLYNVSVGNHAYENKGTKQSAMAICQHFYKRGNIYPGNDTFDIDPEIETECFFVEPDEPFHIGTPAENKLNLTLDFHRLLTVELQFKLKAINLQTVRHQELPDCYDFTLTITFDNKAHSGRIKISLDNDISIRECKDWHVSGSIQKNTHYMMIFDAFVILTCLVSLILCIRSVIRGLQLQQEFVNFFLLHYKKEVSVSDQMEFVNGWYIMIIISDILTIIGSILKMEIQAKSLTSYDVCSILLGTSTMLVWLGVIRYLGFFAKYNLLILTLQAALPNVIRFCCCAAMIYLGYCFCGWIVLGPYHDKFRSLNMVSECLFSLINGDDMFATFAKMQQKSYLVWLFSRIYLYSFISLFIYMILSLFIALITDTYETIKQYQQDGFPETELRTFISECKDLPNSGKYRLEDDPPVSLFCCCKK

As a reminder, the pEC50 is the EC50 on a negative log10 scale, so that one unit is a factor of ten. As for `CCOc1ccc(S(=O)(=O)N2CCCCC2)c(C)c1C`, the pEC50 is 5.75.
